According to patent US6348614B1 (priority 1996, dated 2002):

Tested on: P.infestans (A2 mating type, resistant to metalaxyl)
Assay type: in vivo, Phytophthora infestans
Conditions: Potato, 500 ppm, 6 days after inoculation

Row | Compound | Control efficacy (%) 6d
1 | CCCCC(C)OC(=O)CC(C)NS(=O)(=O)c1ccc(C)cc1 (stereo not shown) [compound 16, D,L N-4-methylbenzenesulfonyl-3-aminobutyric acid i-methylpentyl ester] | 79%
2 | CCCCCCCOC(=O)CC(C)NC(=O)c1cccc(C)c1 (stereo not shown) [compound 22, D,L N-3-methylbezoyl-3-aminobutyric acid heptyl ester] | 70%
3 | CCCCCCCOC(=O)CC(C)NC(=O)c1ccc(C(C)(C)C)cc1 (stereo not shown) [compound 15, D,L N-4-tertbutylbenzoyl-3-aminobutyric acid heptyl ester] | 79%
4 | CCCCCCCCOC(=O)CC(C)NC(=O)c1ccc(-c2cccs2)cc1 (stereo not shown) [compound 48, D,L N-4-2-thiophenebenzoyl-3-aminobutyric acid octyl ester] | 82%
5 | CCC(C)OC(=O)CC(C)NS(=O)(=O)c1ccc(C)cc1 (stereo not shown) [compound 20, D,L N-4-methylbenzenesulfonyl-3-aminobutyric 1-methylpropyll ester] | 75%
6 | CCCC(C)OC(=O)CC(C)NC(=O)c1ccc(C)c(C)c1 (stereo not shown) [compound 21, D,L N-3,4-dimethylbezoyl-3-aminobutyric acid 1-methylbutyl ester] | 73%
7 | CCCCCCCOC(=O)CC(C)NC(=O)c1cc(C)cc(C)c1 (stereo not shown) [compound 13, D,L N-3,5-dimethylbezoyl-3-aminobutyric acid heptyl ester] | 84%
8 | CC(CC(=O)OCCCc1ccccc1)NS(=O)(=O)c1ccccc1 (stereo not shown) [compound 51, D,L N-benzensulphonyl-3-aminobutyric acid 3-phenylpropyl ester] | 76%
9 | CCCCC(C)OC(=O)CC(C)NC(=O)c1ccccc1NC (stereo not shown) [compound 52, D,L N-2-methylaminobenzoyl-3-aminobutyric acid 1-methylpentyl ester] | 74%
10 | CCCCC(C)OC(=O)CC(C)NC(=O)c1ccc(Cl)cc1 (stereo not shown) [compound 18, D,L N-4-cholrobenzoyl-3-aminobutyric acid 1-methylpentyl ester] | 76%
11 | CCCCCCCOC(=O)CC(C)NC(=O)c1c(F)cccc1F (stereo not shown) [compound 14, D,L N-2,6-difluorobenzoyl-3-aminobutyric acid heptyl ester] | 79%
12 | CCCCC(C)OC(=O)CC(C)NS(=O)(=O)c1ccc(Cl)cc1 (stereo not shown) [compound 50, D,L N-4-chlorobenzensulfonyl-3-aminobutyric acid 1-methylpentyl ester] | 77%
13 | CCCCC(C)OC(=O)CC(C)NC(=O)c1ccc(-c2cccs2)cc1 (stereo not shown) [compound 49, D,L N-4-2-thiophenebenzoyl-3-aminobutyric acid 1-methylpentyl ester] | 75%
14 | CCCCCCCOC(=O)CC(C)NC(=O)c1ccc(OC)cc1 (stereo not shown) [compound 12, D,L N-4-methoxybenzoyl-3-aminobutyric acid heptyl ester] | 89%
15 | CC(CC(=O)OCCC(Cl)(Cl)Cl)NS(=O)(=O)c1ccccc1 (stereo not shown) [compound 19, D,L N-benzenesulfonyl-3-aminobutyric acid 2-(trichloromethyl)ethyl ester] | 75%
16 | CC(CC(=O)OCCCc1ccccc1)NS(=O)(=O)c1ccccc1 (stereo not shown) [compound 17, D,L N-benzenesulfonyl-3-aminobutyric acid 3-phenylpropyl ester] | 76%
